Results reported in article PMC2410173, “Pharmacokinetics and efficacy of 2-methoxyoestradiol and 2-methoxyoestradiol-bis-sulphamate in vivo in rodents” (British Journal of Cancer, 2004).
Entries after “also recorded” stand apart in the source; their conditions may differ. Where two headings read alike, the source gives them in different places.

Experiments:
[1] = test system: human umbilical vein endothelial cell (HUVEC); set-up: method as in Newman et al, 2004; conditions: in vitro; ref Newman et al, 2004; cited from earlier work
steroid sulphatase [2] = molecular target: T1, steroid sulphatase (Rattus norvegicus, UniProt P15589); experiment: Liver oestrone sulphatase activity after in vivo dosing
T1 construct: Livers were obtained from animals administered with 2-MeOE2 or 2-MeOE2bisMATE either orally or intravenously, to assess their effects on steroid sulphatase activity; from tissue; host or cells: liver of female Wistar rats
T1 sequence (P15589 20-577): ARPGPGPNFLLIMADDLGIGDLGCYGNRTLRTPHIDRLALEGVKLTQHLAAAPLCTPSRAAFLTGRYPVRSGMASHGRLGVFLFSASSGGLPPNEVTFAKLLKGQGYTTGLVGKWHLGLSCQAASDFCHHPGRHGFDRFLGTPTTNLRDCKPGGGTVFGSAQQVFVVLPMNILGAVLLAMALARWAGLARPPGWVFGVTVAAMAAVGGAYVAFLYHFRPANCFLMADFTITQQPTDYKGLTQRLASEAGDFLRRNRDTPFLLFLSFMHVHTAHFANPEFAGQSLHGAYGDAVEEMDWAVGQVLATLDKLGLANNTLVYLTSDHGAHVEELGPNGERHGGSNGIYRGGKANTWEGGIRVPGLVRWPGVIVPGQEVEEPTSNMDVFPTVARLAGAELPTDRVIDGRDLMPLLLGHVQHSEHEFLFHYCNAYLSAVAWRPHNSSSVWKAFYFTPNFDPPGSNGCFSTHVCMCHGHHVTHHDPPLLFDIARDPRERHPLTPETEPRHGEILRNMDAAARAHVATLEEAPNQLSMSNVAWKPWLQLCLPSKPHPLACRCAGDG
Method: Livers were obtained from animals administered with 2-MeOE2 or 2-MeOE2bisMATE either orally or intravenously, to assess their effects on steroid sulphatase activity. Steroid sulphatase activity was measured as described previously ([Purohit et al, 1995]).

[3] = Pharmacokinetics and metabolism in rat plasma after a single intravenous or oral dose (HPLC); assay type: in vivo
Method: Female Wistar (155–165 g) rats were purchased from Charles River UK Ltd (Margate, Kent, UK) and housed in a dedicated animal facility. Rats received RM1 rodent maintenance diet (SDS, Kent, UK), water ad libitum, and were maintained in positive pressure isolators under a 12 h light–dark cycle. These experiments were carried out under conditions that complied with institutional requirements. Rats received 2-MeOE2 or 2-MeOE2bisMATE (10 mg kg^−1, oral or intravenous), with control animals receiving vehicle only (propylene glycol: THF, 9 : 1 v v^−1). There were two reasons for selecting 10 mg kg^−1 for both oral and intravenous dosing. […] Rats were subjected to terminal anaesthesia (Halothane) and blood removed by cardiac puncture at 5, 15 and 30 min and 1, 3, 8 and 24 h after intravenous administration, and 15 and 30 min and 1, 3, 8, 24 and 48h following oral administration of 2-MeOE2 or 2-MeOE2bisMATE. Plasma was prepared from whole blood by centrifugation (2800 g, 4°C, 15 min). Plasma (0.5 ml) was extracted with diethyl ether (4 ml) and frozen in a methanol : solid carbon dioxide mixture. 17α-Epitestosterone (28 μg ml^−1) was used as an internal standard after purification by HPLC. The organic phase was decanted to a fresh tube and evaporated to dryness under a stream of air at room temperature. The extraction efficiencies for 2-MeOE2 and 2-MeOE2bisMATE from plasma were 71±5 and 75±4% (n=6), respectively. The residues were stored at −20°C until analysis by HPLC.
2-MeOE2bisMATE was separated from its putative metabolites, 2-MeOE2, 2-MeOE2-3MATE and 2-MeOE2-17MATE, using a modified version of a reversed-phase HPLC method described previously ([Hildago Aragones et al, 1996]). An Agilent 1100 (Cheshire, UK) autosampler, photodiode array detector and solvent delivery system were used. The agents were separated from endogenous plasma components by an isocratic mobile phase consisting of 58% methanol in 0.02 M ammonium sulphate. Sodium azide (1 mM) was added to the mobile phase in order to decrease microbial growth. Extracted samples were reconstituted in mobile phase and aliquots of 100 μl were injected on to a C3-phenyl column (250 × 5 mm, 5 μm) purchased from Phenomenex (Cheshire, UK). 2-Methoxyoestradiol-bis-sulphamate, 2-MeOE2 and their metabolites were analysed with a photodiode array detector with detection at 285 nm. The method was validated by spiking plasma with 2-MeOE2bisMATE (960 ng ml^−1). The inter-day and intra-day coefficients of variation were 8.2% (n=6) and 3.8% (n=6), respectively. Quantification was achieved by spiking plasma with 2-MeOE2bisMATE and the internal standard 17α-epitestosterone, extraction with diethyl ether and subsequent analysis by HPLC. […] The limits of detection (LODs) and quantification of 2-MeOE2bisMATE in plasma were 11 and 40 ng ml^−1, respectively.
Pharmacokinetic parameters were calculated using WinNonlin software (Pharsight Corporation, Mountview, CA, USA). The area under the curve (AUC) was calculated using the linear trapezoidal method, with extrapolation of the terminal phase to infinity. Other parameters calculated were: distribution and elimination rate constants (α and β); total body clearance (Cl)=dose/AUC; volume of distribution (Vd)=Cl/β; distribution half-life (t1/2α)=0.693/α; elimination half-life (t1/2β)=0.693/β; bioavailability (% F=(AUCoral/AUCi.v) × 100).

[4] = test system: MDA-MB-435 (ER−) human melanoma cells xenografts; experiment: In vivo inhibition of tumour growth, MDA-MB-435 xenografts in nude mice; set-up: species or system mouse; conditions: 20 mg kg^−1 oral daily for 28 days; for effect on tumour growth / tumour volumes versus control: treatment and post-dosing periods
Method: (§1) To compare the anticancer effects of 2-MeOE2 and 2-MeOE2bisMATE, xenografts derived from MDA-MB-435 (ER−) human melanoma cells were transplanted into female nude mice with eight mice per group. These studies were carried out by Anti-Cancer Inc. (San Diego, CA, USA). Treatment was initiated when tumour volumes reached 100–200 mm^3. Drugs were dissolved in a minimum volume of THF, diluted with propylene glycol and administered at 20 mg kg^−1, oral, daily for 28 days. The length (l) and width (w) of tumours was measured at weekly intervals, from which the tumour volumes were calculated using the formula (l × w^2/2). Monitoring of tumour volumes continued for a further 28-day period after the end of drug administration. The body masses of control and treated animals were also measured at weekly intervals as an indicator of any toxicity that might be associated with the use of these drugs.
Student's t-test was used to assess the significance of differences in tumour volumes between control and treated animals.

[5] = in vivo; cited from earlier work
steroid sulphatase [6] = molecular target: T1, steroid sulphatase; set-up: method as in Purohit et al, 1995; conditions: single dose 10 mg kg^−1 oral or intravenous; ref Purohit et al, 1995; cited from earlier work
[7] = Body masses of xenograft-bearing mice as an indicator of toxicity; assay type: in vivo, mouse; conditions: nude mice, 20 mg kg^−1 oral daily for 28 days
Method: as §1

[8] = female, Wistar, in vivo, iv, 10 mg/kg
[9] = female, Wistar, in vivo, po, 10 mg/kg

In the case of `COc1cc2c(cc1OS(N)(=O)=O)CCC1C2CC[C@]2(C)C(OS(N)(=O)=O)CCC12` (stereo partly drawn) [2-MeOE2bisMATE, 2-methoxyoestradiol-bis-sulphamate], the “potency relative to 2-MeOE2 in HUVEC growth inhibition” value [1] is listed as 60 fold, the “time for which inhibition of sulphatase activity was maintained” value (steroid sulphatase [2]; rat liver, after single dose) is listed as 48 h and the “inhibition of steroid sulphatase activity” value (steroid sulphatase [2]; rat liver, within 5 min of intravenous dosing) is listed as > 99%. The “inhibition of steroid sulphatase activity” value (steroid sulphatase [2]; rat liver, within 15 min of oral dosing) was > 99%, the inhibition at 10 mg/kg (steroid sulphatase [2]; rat, read-out: inhibition of hepatic sulphatase activity compared with control animals) was 99.5 ± 0.5% and the plasma concentrations detected ([3]; female, Wistar, in vivo) was “up to 5 μM”. For the same compound, the bioavailability ([3]; female, Wistar, in vivo, 10 mg/kg, % F (bioavailability)) was 85%, the AUC [3, 8] was 514 ± 154 µg·h/mL and the Cmax [3, 8] was 6550 ± 920 ng/mL. The Vd [3, 8] was 0.28 ± 0.09 L, the clearance [3, 8] was 0.833 mL/min and the half-life ([3]; female, Wistar, in vivo, iv, 10 mg/kg, t1/2α (distribution half-life)) was 0.22 ± 0.1 h. The half-life ([3]; female, Wistar, in vivo, iv, 10 mg/kg, t1/2β (terminal half-life)) was 8.5 ± 1.16 h, the “time for which compound was detectable in plasma” value ([3]; female, Wistar, in vivo, po) was “at least 24 h” and the AUC [3, 9] was 389 ± 28.8 µg·h/mL. For the same compound, the Cl [3, 9] was 0.036 ± 0.001 L/h, the Cmax [3, 9] was 3900 ± 250 ng/mL and the Vd [3, 9] was 0.35 ± 0.02 L. For the same compound, the half-life ([3]; female, Wistar, in vivo, po, 10 mg/kg, t1/2β (terminal plasma half-life)) was 6.51 ± 1.09 h, the plasma concentration ([3]; female, Wistar, in vivo, po, 24 h) was 450 ng/mL and the “effect on tumour growth / tumour volumes versus control” value [4] was “almost completely inhibited tumour growth; also recorded: significantly smaller”. For the same compound, the “mean tumour volume as % of tumour volume in control animals” value ([4]; at 4 weeks, end of dosing) was 14% and the “difference in tumour volumes versus control group” value ([4]; maintained for a further 4 weeks after cessation) was 86%.
For `C[C@]12CC[C@@H]3c4ccc(OS(N)(=O)=O)cc4CC[C@H]3[C@@H]1CCC2=O` [EMATE, oestrone-3-O-sulphamate], the half-life in plasma [5] is listed as 4.5 h and the “inhibition of rat liver sulphatase” value (steroid sulphatase [6]) is listed as “at least 99%”.
For `COc1cc2c(cc1O)CC[C@@H]1[C@@H]2CC[C@]2(C)[C@@H](O)CC[C@@H]12` [2-MeOE2, 2-Methoxyoestradiol], the “inhibition of hepatic sulphatase activity compared with control animals” value (steroid sulphatase [2]; rat liver, single oral or intravenous dose 10 mg kg^−1) was “did not affect”, the “% F (bioavailability)” value ([3]; 10 mg kg^−1, (AUCoral/AUCi.v) × 100) was “very low” and the plasma concentration ([3]; 1 h after 10 mg kg^−1 intravenous bolus, LOD 11 ng ml^−1) was “below the LOD”. For the same compound, the “level in plasma as putative metabolite of 2-MeOE2bisMATE” value ([3]; after oral or intravenous 2-MeOE2bisMATE 10 mg kg^−1) was “not above the LOD”, the concentration at 1 h ([3]; female, Wistar, plasma, iv, 10 mg kg^−1, rat, 1 h after 10 mg kg^−1 intravenous bolus, LOD 11 ng ml^−1) was < 11 ng/mL and the half-life ([3]; female, Wistar, plasma, iv, 10 mg kg^−1, rat, after intravenous administration, read-out: half-life in plasma) was ~0.233 h. The body weights [7] was “No decreases” and the “effect on tumour growth / tumour volumes versus control” value [4] was “did not inhibit tumour growth; also recorded: no significant effect”.
